Experimental data from article PMC6270209, “Synthesis, Antimycobacterial Activity and In Vitro Cytotoxicity of 5-Chloro-N-phenylpyrazine-2-carboxamides” (Molecules, 2013).
Converted amounts (≈) assume the structure as drawn. Read-outs that look alike come from different tables or passages of the source.

Assays:
[1] = tested on: M. tuberculosis H37Rv CNCTC My 331/88; test: In vitro antimycobacterial activity, microdilution panel method (MIC); assay type: cell-based, Mycobacterium tuberculosis; settings: for MIC: Mycobacterium tuberculosis, H37RV
[2] = tested on: M. avium ssp. avium Chester CNCTC My 80/72; test: as above; assay type: cell-based, Mycobacterium avium; settings: for MIC: Mycobacterium avium
M. avium CNCTC My 152/73 = test: as above; assay type: cell-based, Mycobacterium avium; settings: for MIC: Mycobacterium avium
HepG2 cells = settings: for IC50: read-out: Cytotoxicity IC50, HepG2 cells, 24 h incubation (Table 1)
in vitro = settings: human
[3] = tested on: M. kansasii Hauduroy CNCTC My 235/80; test: In vitro antimycobacterial activity, microdilution panel method (MIC); assay type: cell-based, Mycobacterium kansasii; settings: for MIC: Mycobacterium kansasii; for MIC / Antimycobacterial activity MIC, M. kansasii: M. kansasii Hauduroy CNCTC My 235/80
[4] = Solubility in antimycobacterial testing medium (observation); assay type: physicochemical
[5] = RP-HPLC, C18, MeOH 70% / H2O 30%, 30 °C
[6] = M. tuberculosis H37Rv, retest with extended dilution scale up to 0.39 µg/mL, read-out: Antimycobacterial activity MIC, M. tbc (confirmation retest, value in parentheses)
[7] = pH 5.6, M. tuberculosis H37Rv, primary test, dilution scale 100–[…], Šula's medium pH 5.6, read-out: Antimycobacterial activity MIC, M. tbc
[8] = SI calculated for M. tbc as IC50 (HepG2)/MIC (in μM) using the lower MIC values (Table 1)
[9] = M. tuberculosis H37Rv, primary test, dilution scale 100–[…], Šula's medium pH 5.6
[10] = M. tuberculosis H37Rv, retest with extended dilution scale up to 0.39 µg/mL

Structure (SMILES) | MIC [1, 7] | MIC [2] | MIC (M. avium CNCTC My 152/73) | Cytotoxicity SI (HepG2 cells; [8]) | IC50 (in vitro) | MIC [3] | other results
O=C(Nc1ccccc1O)c1cnc(Cl)cn1 [Compound 2, 5-Chloro-N-(2-hydroxyphenyl)pyrazine-2-carboxamide] | 3.13 µg/mL | > 100 µg/mL | > 100 µg/mL | 2.39 | 30 µM | – | MIC [1, 6]: 0.78 µg/mL
O=C(Nc1cccc(O)c1)c1cnc(Cl)cn1 [Compound 3, 5-Chloro-N-(3-hydroxyphenyl)pyrazine-2-carboxamide] | 6.25 µg/mL | > 100 µg/mL | 100 µg/mL (≈ 401 µM) | 1.28 | 32.1 µM | 50 µg/mL (≈ 200 µM) | Activity against M. kansasii (in words) [3]: inactive
COc1ccc(NC(=O)c2cnc(Cl)cn2)c(OC)c1 [Compound 5] | > 50 µg/mL | > 50 µg/mL | > 50 µg/mL | – | – | > 50 µg/mL | Antimycobacterial activity against M. tbc H37Rv (in words) [1]: inactive; Solubility in testing medium (in words) [4]: Insufficient solubility
Cc1ccc(C)c(NC(=O)c2cnc(Cl)cn2)c1 [Compound 6, 5-Chloro-N-(2,5-dimethylphenyl)pyrazine-2-carboxamide] | 1.56 µg/mL | > 100 µg/mL | > 100 µg/mL | 1.96 | 11.7 µM | > 100 µg/mL | MIC [1, 6]: 1.56 µg/mL
CCc1ccc(NC(=O)c2cnc(Cl)cn2)cc1 [Compound 7, 5-Chloro-N-(4-ethylphenyl)pyrazine-2-carboxamide] | 1.56 µg/mL | > 100 µg/mL | > 100 µg/mL | 2.41 | 7.17 µM | – | MIC [1, 6]: 0.78 µg/mL
CC(C)c1ccc(NC(=O)c2cnc(Cl)cn2)cc1 [Compound 8, 5-Chloro-N-(4-isopropylphenyl)pyrazine-2-carboxamide] | 1.56 µg/mL | > 100 µg/mL | > 100 µg/mL | 2.55 | 14.4 µM | – | –
O=C(Nc1ccccc1F)c1cnc(Cl)cn1 [Compound 9] | – | – | – | – | – | – | Antimycobacterial activity MIC, M. tbc [1, 9]: 6.25 µg/mL; Antimycobacterial activity MIC, M. kansasii [3]: 12.5 µg/mL; Antimycobacterial activity MIC, M. avium [2]: >100 µg/mL; Antimycobacterial activity MIC, M. avium (M. avium CNCTC My 152/73): >100 µg/mL; Lipophilicity logk [5]: 0.490
O=C(Nc1cccc(F)c1)c1cnc(Cl)cn1 [Compound 10, 5-Chloro-N-(3-fluorophenyl)pyrazine-2-carboxamide] | 6.25 µg/mL | > 100 µg/mL | > 100 µg/mL | – | – | 12.5 µg/mL (≈ 49.7 µM) | –
O=C(Nc1ccc(F)cc1F)c1cnc(Cl)cn1 [Compound 11, 5-Chloro-N-(2,4-difluorophenyl)pyrazine-2-carboxamide] | 3.13 µg/mL | > 50 µg/mL | > 50 µg/mL | – | – | 6.25 µg/mL (≈ 23.2 µM) | –
O=C(Nc1ccccc1Cl)c1cnc(Cl)cn1 [Compound 12] | – | – | – | 0.58 | – | – | Antimycobacterial activity MIC, M. tbc [1, 9]: 3.13 µg/mL; Antimycobacterial activity MIC, M. tbc (confirmation retest, value in parentheses) [1, 10]: 0.78 µg/mL; Antimycobacterial activity MIC, M. avium [2]: >100 µg/mL; Antimycobacterial activity MIC, M. avium (M. avium CNCTC My 152/73): >100 µg/mL; IC50 (HepG2 cells): 6.72 µM; Lipophilicity logk [5]: 0.819
O=C(Nc1cccc(Cl)c1)c1cnc(Cl)cn1 [Compound 13] | – | – | – | – | – | – | Antimycobacterial activity MIC, M. tbc [1, 9]: 6.25 µg/mL; Antimycobacterial activity MIC, M. tbc (confirmation retest, value in parentheses) [1, 10]: 3.13 µg/mL; Antimycobacterial activity MIC, M. kansasii [3]: 25 µg/mL; Antimycobacterial activity MIC, M. avium [2]: 25 µg/mL; Antimycobacterial activity MIC, M. avium (M. avium CNCTC My 152/73): 25 µg/mL; Lipophilicity logk [5]: 0.587
O=C(Nc1ccc(Cl)c(Cl)c1)c1cnc(Cl)cn1 [Compound 14, 5-Chloro-N-(3,4-dichlorophenyl)pyrazine-2-carboxamide] | 3.13 µg/mL | > 100 µg/mL | > 100 µg/mL | 0.88 | 9.1 µM | > 100 µg/mL | –
O=C(Nc1cc(Cl)c(Cl)cc1Cl)c1cnc(Cl)cn1 [Compound 15, 5-Chloro-N-(2,4,5-trichlorophenyl)pyrazine-2-carboxamide] | > 100 µg/mL | > 100 µg/mL | > 100 µg/mL | – | – | > 100 µg/mL | Antimycobacterial activity against M. tbc H37Rv (in words) [1]: inactive or weakly active; Solubility in testing medium (in words) [4]: low solubility; melting point: 189.3 to 192.4 °C
O=C(Nc1cccc(Br)c1)c1cnc(Cl)cn1 [Compound 16, 5-Chloro-N-(3-bromophenyl)pyrazine-2-carboxamide] | 25 µg/mL | > 100 µg/mL | > 100 µg/mL | – | – | 25 µg/mL (≈ 80 µM) | –
O=C(Nc1ccc(Br)cc1)c1cnc(Cl)cn1 [Compound 17] | – | – | – | – | – | – | Antimycobacterial activity MIC, M. tbc [1, 9]: 3.13 µg/mL; Antimycobacterial activity MIC, M. kansasii [3]: 6.25 µg/mL; Antimycobacterial activity MIC, M. avium [2]: >100 µg/mL; Antimycobacterial activity MIC, M. avium (M. avium CNCTC My 152/73): >100 µg/mL; Lipophilicity logk [5]: 0.660
O=C(Nc1ccc(I)cc1Cl)c1cnc(Cl)cn1 [Compound 18, 5-Chloro-N-(2-chloro-4-iodophenyl)pyrazine-2-carboxamide] | 12.5 µg/mL | > 50 µg/mL | > 50 µg/mL | – | – | 1.56 µg/mL (≈ 3.96 µM) | Antimycobacterial activity against M. tbc H37Rv (in words) [1]: inactive or weakly active; Activity against M. kansasii (in words) [3]: most active; Solubility in testing medium (in words) [4]: low solubility; melting point: 175.6 to 177.3 °C
Cc1ccc(F)cc1NC(=O)c1cnc(Cl)cn1 [Compound 19, 5-Chloro-N-(5-fluoro-2-methylphenyl)pyrazine-2-carboxamide] | 3.13 µg/mL | > 100 µg/mL | > 100 µg/mL | – | – | 25 µg/mL (≈ 94.1 µM) | MIC [1, 6]: 6.25 µg/mL
Cc1ccc(Cl)c(NC(=O)c2cnc(Cl)cn2)c1 [Compound 20, 5-Chloro-N-(2-chloro-5-methylphenyl)pyrazine-2-carboxamide] | 1.56 µg/mL | > 100 µg/mL | > 100 µg/mL | 2.86 | 15.8 µM | 25 µg/mL (≈ 88.6 µM) | –
O=C(Nc1ccc(O)c(Cl)c1)c1cnc(Cl)cn1 [Compound 22, 5-Chloro-N-(3-chloro-4-hydroxyphenyl)pyrazine-2-carboxamide] | 3.13 µg/mL | 50 µg/mL (≈ 176 µM) | 25 µg/mL (≈ 88 µM) | 1.17 | 12.9 µM | > 100 µg/mL | MIC [1, 6]: 0.39 µg/mL
O=C(Nc1cc([N+](=O)[O-])ccc1O)c1cnc(Cl)cn1 [Compound 23, 5-Chloro-N-(2-hydroxy-5-nitrophenyl)pyrazine-2-carboxamide] | 1.56 µg/mL | 50 µg/mL (≈ 170 µM) | 50 µg/mL (≈ 170 µM) | 0.29 | 1.52 µM | – | MIC [1, 6]: 1.56 µg/mL
O=C(Nc1ccccc1[N+](=O)[O-])c1cnc(Cl)cn1 [Compound 24, 5-Chloro-N-(2-nitrophenyl)pyrazine-2-carboxamide] | 12.5 µg/mL | > 100 µg/mL | > 100 µg/mL | – | – | – | –
O=C(Nc1cccc([N+](=O)[O-])c1)c1cnc(Cl)cn1 [Compound 25] | – | – | – | 2.91 | – | – | Antimycobacterial activity MIC, M. tbc [1, 9]: 3.13 µg/mL; Antimycobacterial activity MIC, M. avium [2]: >100 µg/mL; Antimycobacterial activity MIC, M. avium (M. avium CNCTC My 152/73): >100 µg/mL; IC50 (HepG2 cells): 32.7 µM; Lipophilicity logk [5]: 0.344
N#Cc1cccc(NC(=O)c2cnc(Cl)cn2)c1 [Compound 26, 5-Chloro-N-(3-cyanophenyl)pyrazine-2-carboxamide] | 25 µg/mL | > 50 µg/mL | > 50 µg/mL | – | – | 3.13 µg/mL (≈ 12.1 µM) | Antimycobacterial activity against M. tbc H37Rv (in words) [1]: low activity; Antimycobacterial activity MIC, M. kansasii [3]: ≤ 6.25 µg/mL
N#Cc1ccc(NC(=O)c2cnc(Cl)cn2)cc1 [Compound 27, 5-Chloro-N-(4-cyanophenyl)pyrazine-2-carboxamide] | > 100 µg/mL | > 100 µg/mL | > 100 µg/mL | – | – | > 100 µg/mL | Antimycobacterial activity against M. tbc H37Rv (in words) [1]: inactive
O=C(Nc1cccc(C(F)(F)F)c1)c1cnc(Cl)cn1 [Compound 28, 5-Chloro-N-(3-(trifluoromethyl)phenyl)pyrazine-2-carboxamide] | 3.13 µg/mL | > 100 µg/mL | > 100 µg/mL | 3.99 | 41.4 µM | 12.5 µg/mL (≈ 41.4 µM) | MIC [1, 6]: 6.25 µg/mL
O=C(Nc1ccc(C(F)(F)F)cc1)c1cnc(Cl)cn1 [Compound 29, 5-Chloro-N-(4-(trifluoromethyl)phenyl)pyrazine-2-carboxamide] | 1.56 µg/mL | > 100 µg/mL | > 100 µg/mL | 1.64 | 8.5 µM | 12.5 µg/mL (≈ 41.4 µM) | MIC [1, 6]: 3.13 µg/mL
NC(=O)c1cnccn1 [PZA, pyrazinamide, reference compound] | 6.25 to 12.5 µg/mL | > 100 µg/mL | > 100 µg/mL | – | > 10000 µM | > 100 µg/mL | MIC ([1]; read-out: M. tbc H37Rv MIC (µM), MIC converted to molar concentrations): 51 to 102 µM; Cytotoxicity SI (HepG2 cells; human): >196; Lipophilicity logk [5]: −0.687
